Measurements from PubChem BioAssay (NCI).
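Test compounds were applied to cells in 96-well plates for 48 hours at 5 doses. GI50 marks 50% less growth. Definition used: TGI = concentration required for complete inhibition of growth.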

Tests used:
Assay in all cases: NCI anticancer screen, dose series, 48 h
SF-268 CNS = test system: SF-268 CNS
SN12C renal = test system: SN12C renal
OVCAR-4 ovarian = test system: OVCAR-4 ovarian
SNB-75 CNS = test system: SNB-75 CNS
HS 578T breast = test system: HS 578T breast
HOP-92 NSCLC = test system: HOP-92 NSCLC
HOP-62 NSCLC = test system: HOP-62 NSCLC
SK-MEL-5 melanoma = test system: SK-MEL-5 melanoma
SK-MEL-28 melanoma = test system: SK-MEL-28 melanoma
MDA-MB-435 = test system: MDA-MB-435

Row | SMILES | GI50 (SF-268 CNS) [µM] | TGI (SF-268 CNS) [µM] | GI50 (SN12C renal) [µM] | TGI (SN12C renal) [µM] | GI50 (OVCAR-4 ovarian) [µM] | TGI (OVCAR-4 ovarian) [µM] | GI50 (SNB-75 CNS) [µM] | TGI (SNB-75 CNS) [µM] | GI50 (HS 578T breast) [µM] | TGI (HS 578T breast) [µM] | GI50 (HOP-92 NSCLC) [µM] | TGI (HOP-92 NSCLC) [µM] | GI50 (HOP-62 NSCLC) [µM] | TGI (HOP-62 NSCLC) [µM] | GI50 (SK-MEL-5 melanoma) [µM] | TGI (SK-MEL-5 melanoma) [µM] | TGI (SK-MEL-28 melanoma) [µM] | GI50 (SK-MEL-28 melanoma) [µM] | TGI (MDA-MB-435) [µM] | GI50 (MDA-MB-435) [µM]
1 | Cc1ncc(CCCN(C)C)cc1Nc1ncc2c(n1)-c1ccc(C(F)(F)F)cc1NC(=S)C2 | < 0.0195 | 13.8 | 0.0952 | 18.4 | 1.22 | > 100 | 0.0173 | 0.975 | 0.0276 | 1.14 | 0.0216 | 0.519 | < 0.0155 | 1.54 | < 0.0282 | 4.85 |  |  |  | 
2 | O=C(Nc1c(Cl)cc([N+](=O)[O-])cc1Cl)C(=O)C(C1OC(=O)c2ccccc21)[N+](=O)[O-] (stereo not drawn) |  | > 100 |  | > 100 |  | > 100 |  | > 100 |  |  |  | 99.1 |  | > 100 |  | > 100 | > 100 |  |  | 
3 | C[C@]12CC[C@@H]3c4cc(OCC(F)(F)F)c(O)cc4/C(=N/O)C[C@H]3[C@@H]1CC[C@@H]2O |  | 21.7 |  | 48.3 |  | 39 |  |  |  |  |  | 26.3 | 0.029 | 0.419 |  | 12.5 | 25.9 | 0.0637 | 0.0465 | 
4 | CC(=O)C(=CN1CCN(C(=O)c2ccco2)C1=S)C(C)=O | 2.57 | 6.72 | 2.57 | 7.11 | 10.6 | 32.7 | 9.02 | 71.4 |  |  | 11.7 | 46 | 22 | 41.7 | 16.6 | 31.5 | 25.8 | 3.94 | 49 | 12.6
5 | Cn1c2ccccc2c(=O)c2ccc(Cl)cc21 |  | > 10 |  | > 10 |  | > 10 |  | > 10 |  |  |  | > 10 |  | > 10 |  | > 10 | > 10 |  | > 10 | 
6 | O=C(/C=C\c1ccc(NCc2ccc(C(=O)O)cc2)cc1)CCl | 10.6 | 24.7 | 11.2 | 23.7 | 13.9 | 26.9 | 13.4 | 26.3 | 15.7 | 45.6 |  |  | 15.5 | 29.6 | 17.2 | 34.5 | 31.4 | 16.8 | 31.9 | 15.8
7 | Nc1ccn(C2CCC(CO)O2)c(=O)n1 (stereo not drawn) | > 1000 | > 1000 | > 1000 | > 1000 | > 1000 | > 1000 | > 1000 | > 1000 |  | > 1000 | > 1000 | > 1000 | > 1000 | > 1000 | > 1000 | > 1000 |  |  | > 1000 | 
8 | O=C1OC2CCCC[C@@H]2C2C[C@]34CCCCC3[C@@H](C(=O)O4)C12 (stereo partly drawn) |  | > 100 |  | > 100 |  | > 100 |  | > 100 |  |  |  | > 100 |  | > 100 |  | > 100 | > 100 |  |  | 
